Experiments:
A549 cells = assay: cells; assay type: cell-based, Human; settings: 24 h exposure, WST assay
Experimental: Human adenocarcinomic alveolar epithelial (A549) cells were obtained from the Korea Cell Line Bank (Seoul, Korea). Cells were grown in RPMI 1640 medium (Thermo Fisher Scientific, Waltham, MA, USA), containing 10% heat-inactivated fetal bovine serum (Thermo Fisher Scientific, Waltham, MA, USA) and 1% penicillin-streptomycin (Thermo Fisher Scientific, Waltham, MA, USA) under standard cell culture conditions (37 °C, 5% CO2, and 90% humidity).
A549 cells (1 × 10^4 cells) were incubated in 96-well plates overnight, and various concentrations (1, 10, 100, 1000, and 5000 μg/mL) of the eight selected chemicals were added to the cell culture medium. After 24 h of incubation, cell morphology was observed by optical microscopy, and cell viability was evaluated using EZ-Cytox kit (DoGenBio, Seoul, Korea) by quantifying purple formazan crystals. The membrane integrity was examined using an EZ-lactate dehydrogenase (LDH) kit (DoGenBio, Seoul, Korea) to measure the LDH level released from the cytosol into the culture medium. Absorbance was measured using a microplate reader (Tecan, Salzburg, Austria) at a wavelength of 450 nm.

Sprague-Dawley (SD) rats = assay: Histopathology of nasal cavity and lung after acute inhalation; assay type: in vivo, rat; settings: High 68 mg/m^3, 4 h; for Lung: Cell infiltration, terminal bronchiole/alveolar duct, neutrophils/macrophages / Lung: Intraluminal cell debris, terminal bronchiole/alveolar duct / Lung: No specific lesion / Nasal cavity Level 1: Acute inflammation with necrosis, focal / Nasal cavity Level 1: Cell infiltration, lymphocytes, focal / Nasal cavity Level 1: No specific lesion / Nasal cavity Level 2: Acute inflammation with necrosis, focal / Nasal cavity Level 2: Cell infiltration, lymphocytes, focal / Nasal cavity Level 2: No specific lesion / Nasal cavity Level 3: Cell infiltration, lymphocytes, focal / Nasal cavity Level 3: No specific lesion / Nasal cavity Level 4: Cell infiltration, lymphocytes, focal / Nasal cavity Level 4: No specific lesion: cases (percentage) of 5 examined; for Lung: Cell infiltration, terminal bronchiole/alveolar duct, neutrophils/macrophages; Grade: minimal / Lung: Intraluminal cell debris, terminal bronchiole/alveolar duct; Grades: minimal / Nasal cavity Level 1: Acute inflammation with necrosis, focal; Grade: mild / Nasal cavity Level 1: Acute inflammation with necrosis, focal; Grade: minimal / Nasal cavity Level 1: Cell infiltration, lymphocytes, focal; Grade: minimal / Nasal cavity Level 2: Acute inflammation with necrosis, focal; Grade: mild / Nasal cavity Level 2: Acute inflammation with necrosis, focal; Grade: minimal / Nasal cavity Level 2: Cell infiltration, lymphocytes, focal; Grade: minimal / Nasal cavity Level 3: Cell infiltration, lymphocytes, focal; Grade: minimal / Nasal cavity Level 4: Cell infiltration, lymphocytes, focal; Grade: minimal: number of cases
Experimental: The inhalation aerosols of the DGH solutions were generated using an atomizer with a clean air flow of 250 L/min. For the acute inhalation exposure study, the rats were exposed to 7.8 mg/m^3, 23 mg/m^3, and 70 mg/m^3 DGH for 4 h in the low, middle, and high exposure groups, respectively, and the control rats were exposed to clean air. In the acute toxicity test, all the rats in each group were sacrificed immediately after exposure. Temperature, humidity, air flow, and air pressure were monitored during the exposure using a Model VT3-X15 environmental controller (Sibata, Saitama, Japan). The concentration of DGH was analyzed by sampling the chamber air using a SIP-32L (Sibata, Saitama, Japan) and measuring the weight of the membranes (T60A20, Φ55). The mass median aerodynamic diameter (MMAD) and geometric standard deviation (GSD) of DGH in the exposure chamber were measured using an Andersen cascade impactor (AN-200, Sibata, Saitama, Japan).
After the inhalation of DGH for 4 h, the animals were euthanized. After gross examination, the left lung and nasal cavity of the rats in the control and high-exposure groups were fixed in 10% neutral buffered formalin. The nasal cavity was decalcified with a decalcification solution and then cross-sectioned into four levels as follows: level 1 (posterior part of the upper incisors), level 2 (incisive papilla), level 3 (second palatine crest), level 4 (first upper molar teeth). Following routine tissue processing, the tissues were embedded in paraffin and sectioned into 3 μm thick sections. The tissue sections were stained with hematoxylin and eosin (H&E), and then examined under a light microscope (Olympus BX41, Tokyo, Japan). The lesions were graded according to severity by pathologists.

CCCCCCCCCCCCN=C(N)N.Cl [DGH, Dodecylguanidine hydrochloride]
IC50 (half inhibitory concentration by cell viability assay) (A549 cells): 0.39 µg/mL
Lung: Cell infiltration, terminal bronchiole/alveolar duct, neutrophils/macrophages (Sprague-Dawley (SD) rats; female): 3(60.0)
Lung: Intraluminal cell debris, terminal bronchiole/alveolar duct (Sprague-Dawley (SD) rats; female): 1(20.0)
Lung: No specific lesion (Sprague-Dawley (SD) rats; female): 1(20.0)
Nasal cavity Level 1: Acute inflammation with necrosis, focal (Sprague-Dawley (SD) rats; female): 1(20.0)
Nasal cavity Level 1: Cell infiltration, lymphocytes, focal (Sprague-Dawley (SD) rats; female): 0(0.00)
Nasal cavity Level 1: No specific lesion (Sprague-Dawley (SD) rats; female): 4(80.0)
Nasal cavity Level 2: Acute inflammation with necrosis, focal (Sprague-Dawley (SD) rats; female): 0(0.00)
Nasal cavity Level 2: Cell infiltration, lymphocytes, focal (Sprague-Dawley (SD) rats; female): 0(0.00)
Nasal cavity Level 2: No specific lesion (Sprague-Dawley (SD) rats; female): 5(100)
Nasal cavity Level 3: Cell infiltration, lymphocytes, focal (Sprague-Dawley (SD) rats; female): 1(20.0)
Nasal cavity Level 3: No specific lesion (Sprague-Dawley (SD) rats; female): 4(80.0)
Nasal cavity Level 4: Cell infiltration, lymphocytes, focal (Sprague-Dawley (SD) rats; female): 2(40.0)
Nasal cavity Level 4: No specific lesion (Sprague-Dawley (SD) rats; female): 3(60.0)
Lung: Cell infiltration, terminal bronchiole/alveolar duct, neutrophils/macrophages; Grade: minimal (Sprague-Dawley (SD) rats; female): 3
Lung: Intraluminal cell debris, terminal bronchiole/alveolar duct; Grades: minimal (Sprague-Dawley (SD) rats; female): 1
Nasal cavity Level 1: Acute inflammation with necrosis, focal; Grade: mild (Sprague-Dawley (SD) rats; female): 0
Nasal cavity Level 1: Acute inflammation with necrosis, focal; Grade: minimal (Sprague-Dawley (SD) rats; female): 1
Nasal cavity Level 1: Cell infiltration, lymphocytes, focal; Grade: minimal (Sprague-Dawley (SD) rats; female): 0
Nasal cavity Level 2: Acute inflammation with necrosis, focal; Grade: mild (Sprague-Dawley (SD) rats; female): 0
Nasal cavity Level 2: Acute inflammation with necrosis, focal; Grade: minimal (Sprague-Dawley (SD) rats; female): 0
Nasal cavity Level 2: Cell infiltration, lymphocytes, focal; Grade: minimal (Sprague-Dawley (SD) rats; female): 0
Nasal cavity Level 3: Cell infiltration, lymphocytes, focal; Grade: minimal (Sprague-Dawley (SD) rats; female): 1
Nasal cavity Level 4: Cell infiltration, lymphocytes, focal; Grade: minimal (Sprague-Dawley (SD) rats; female): 2
Lung: Cell infiltration, terminal bronchiole/alveolar duct, neutrophils/macrophages (Sprague-Dawley (SD) rats; male): 5(100)
Lung: Intraluminal cell debris, terminal bronchiole/alveolar duct (Sprague-Dawley (SD) rats; male): 1(20.0)
Lung: No specific lesion (Sprague-Dawley (SD) rats; male): 0(0.00)
Nasal cavity Level 1: Acute inflammation with necrosis, focal (Sprague-Dawley (SD) rats; male): 1(20.0)
Nasal cavity Level 1: Cell infiltration, lymphocytes, focal (Sprague-Dawley (SD) rats; male): 0(0.00)
Nasal cavity Level 1: No specific lesion (Sprague-Dawley (SD) rats; male): 4(80.0)
Nasal cavity Level 2: Acute inflammation with necrosis, focal (Sprague-Dawley (SD) rats; male): 1(20.0)
Nasal cavity Level 2: Cell infiltration, lymphocytes, focal (Sprague-Dawley (SD) rats; male): 0(0.00)
Nasal cavity Level 2: No specific lesion (Sprague-Dawley (SD) rats; male): 4(80.0)
Nasal cavity Level 3: Cell infiltration, lymphocytes, focal (Sprague-Dawley (SD) rats; male): 2(40.0)
Nasal cavity Level 3: No specific lesion (Sprague-Dawley (SD) rats; male): 3(60.0)
Nasal cavity Level 4: Cell infiltration, lymphocytes, focal (Sprague-Dawley (SD) rats; male): 0(0.00)
Nasal cavity Level 4: No specific lesion (Sprague-Dawley (SD) rats; male): 5(100)
Lung: Cell infiltration, terminal bronchiole/alveolar duct, neutrophils/macrophages; Grade: minimal (Sprague-Dawley (SD) rats; male): 5
Lung: Intraluminal cell debris, terminal bronchiole/alveolar duct; Grades: minimal (Sprague-Dawley (SD) rats; male): 1
Nasal cavity Level 1: Acute inflammation with necrosis, focal; Grade: mild (Sprague-Dawley (SD) rats; male): 1
Nasal cavity Level 1: Acute inflammation with necrosis, focal; Grade: minimal (Sprague-Dawley (SD) rats; male): 0
Nasal cavity Level 1: Cell infiltration, lymphocytes, focal; Grade: minimal (Sprague-Dawley (SD) rats; male): 0
Nasal cavity Level 2: Acute inflammation with necrosis, focal; Grade: mild (Sprague-Dawley (SD) rats; male): 1
Nasal cavity Level 2: Acute inflammation with necrosis, focal; Grade: minimal (Sprague-Dawley (SD) rats; male): 0
Nasal cavity Level 2: Cell infiltration, lymphocytes, focal; Grade: minimal (Sprague-Dawley (SD) rats; male): 0
Nasal cavity Level 3: Cell infiltration, lymphocytes, focal; Grade: minimal (Sprague-Dawley (SD) rats; male): 2
Nasal cavity Level 4: Cell infiltration, lymphocytes, focal; Grade: minimal (Sprague-Dawley (SD) rats; male): 0
